PMC8717366, “Synthesis and Pharmacological Characterization of Visabron, a Backbone Cyclic Peptide Dual Antagonist of α4β1 (VLA-4)/α9β1 Integrin for Therapy of Multiple Sclerosis” (JACS Au, 2021)
Peptide text beside a SMILES is read from it.

Columns and labels:
α9β1 = biological target: T1, α9β1 (Homo sapiens, UniProt P05556+Q13797); experiment: Adhesion of α9-SW480 overexpressing cells to VCAM-1; type: cell-based; details: n=6, Table S6, read-out: IC50 α9β1 (linear peptides)
T1 construct: generated by transfection with full-length α9 expression plasmid pcDNAIneoa9; expressed in transfected cells; host or cells: SW480 transfected with pcDNAIneoa9
T1 sequence (Q13797 30-1035): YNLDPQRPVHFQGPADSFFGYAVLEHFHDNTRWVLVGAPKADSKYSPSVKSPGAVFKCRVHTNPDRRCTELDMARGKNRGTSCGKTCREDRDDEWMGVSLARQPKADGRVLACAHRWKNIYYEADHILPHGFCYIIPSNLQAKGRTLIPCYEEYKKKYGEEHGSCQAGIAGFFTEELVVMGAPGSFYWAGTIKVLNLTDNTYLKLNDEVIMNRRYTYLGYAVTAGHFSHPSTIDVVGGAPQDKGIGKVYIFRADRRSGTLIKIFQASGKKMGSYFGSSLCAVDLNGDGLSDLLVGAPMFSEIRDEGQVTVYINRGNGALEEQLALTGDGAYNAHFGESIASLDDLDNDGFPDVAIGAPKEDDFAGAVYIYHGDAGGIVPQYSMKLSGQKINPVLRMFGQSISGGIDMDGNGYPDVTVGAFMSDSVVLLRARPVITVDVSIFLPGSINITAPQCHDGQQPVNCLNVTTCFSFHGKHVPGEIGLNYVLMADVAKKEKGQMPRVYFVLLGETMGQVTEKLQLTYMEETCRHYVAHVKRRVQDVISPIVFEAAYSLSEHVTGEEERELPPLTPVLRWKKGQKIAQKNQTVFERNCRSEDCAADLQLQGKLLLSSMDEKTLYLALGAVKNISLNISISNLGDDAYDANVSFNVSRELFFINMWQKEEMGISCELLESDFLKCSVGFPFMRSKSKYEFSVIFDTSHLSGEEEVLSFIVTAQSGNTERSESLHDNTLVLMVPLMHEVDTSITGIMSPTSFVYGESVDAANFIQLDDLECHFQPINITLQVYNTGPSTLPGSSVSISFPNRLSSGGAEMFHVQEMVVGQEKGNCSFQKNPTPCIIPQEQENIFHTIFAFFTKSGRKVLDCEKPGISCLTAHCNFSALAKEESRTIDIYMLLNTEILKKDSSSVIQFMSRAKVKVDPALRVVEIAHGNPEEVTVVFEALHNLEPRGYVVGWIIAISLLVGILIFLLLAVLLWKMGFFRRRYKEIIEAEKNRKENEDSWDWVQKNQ
T1 sequence (P05556 21-798): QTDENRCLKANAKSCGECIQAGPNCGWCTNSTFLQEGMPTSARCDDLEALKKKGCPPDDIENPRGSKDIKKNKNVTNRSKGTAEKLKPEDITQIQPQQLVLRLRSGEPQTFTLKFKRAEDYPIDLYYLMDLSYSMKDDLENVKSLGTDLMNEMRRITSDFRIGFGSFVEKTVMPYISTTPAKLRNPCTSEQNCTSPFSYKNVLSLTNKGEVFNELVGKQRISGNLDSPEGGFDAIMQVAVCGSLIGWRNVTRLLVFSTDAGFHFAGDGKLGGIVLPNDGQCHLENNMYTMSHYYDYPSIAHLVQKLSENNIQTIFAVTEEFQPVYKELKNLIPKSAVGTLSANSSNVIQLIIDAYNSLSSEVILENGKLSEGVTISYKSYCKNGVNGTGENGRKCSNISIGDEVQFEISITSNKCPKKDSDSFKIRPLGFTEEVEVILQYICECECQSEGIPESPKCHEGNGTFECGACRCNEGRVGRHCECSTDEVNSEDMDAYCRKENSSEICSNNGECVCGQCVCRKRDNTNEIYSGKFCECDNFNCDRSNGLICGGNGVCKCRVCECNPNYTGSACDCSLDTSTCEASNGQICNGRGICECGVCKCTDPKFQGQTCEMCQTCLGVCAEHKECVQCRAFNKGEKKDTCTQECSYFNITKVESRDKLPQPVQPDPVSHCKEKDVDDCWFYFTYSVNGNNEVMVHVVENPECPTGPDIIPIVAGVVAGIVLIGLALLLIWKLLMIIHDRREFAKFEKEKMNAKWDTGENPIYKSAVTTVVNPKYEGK
Procedure: Table S6. TMLD- linear peptides inhibition of adhesion of integrin expressing cells to the respective immobilized ligands a a The cells were incubated for 30 min at 37 °C with the cells (1 x 105) in the 96 -well plate, previously covered with extracellular matrix ligand, in 100 µL of HBSS containing calcium and magnesium. After being washed with the same buffer, the adhered cells were lysed by Triton X-100, and the plate was read using Tecan spectrofluorimeter. The inhibitory dose 50% (IC 50) values represent ing mean ± standard deviatio ns (n=6) were calculated from dose response curves. bJurkat cells,VCAM -1; c α9-SW480 overexpressing cells, VCAM-1; d α1-K562 overexpressing cells, collagen IV ;e α2-K562 overexpressing cells, collagen I; f K562 wild type […]
(1 picture or pasted object on this page, not shown here)

[1] = biological target: T2, α4β1 (Jurkat lymphocytes-VCAM-1) (Homo sapiens, UniProt P05556+P13612); experiment: Adhesion of Jurkat lymphocytes to immobilized VCAM-1; type: cell-based; details: Jurkat cells, VCAM-1; n=6; Table S6; read-out: IC50 α4β1 (linear peptides)
T2 construct: host or cells: Jurkat (untreated or TNFα-treated)
T2 sequence (P13612 34-1032): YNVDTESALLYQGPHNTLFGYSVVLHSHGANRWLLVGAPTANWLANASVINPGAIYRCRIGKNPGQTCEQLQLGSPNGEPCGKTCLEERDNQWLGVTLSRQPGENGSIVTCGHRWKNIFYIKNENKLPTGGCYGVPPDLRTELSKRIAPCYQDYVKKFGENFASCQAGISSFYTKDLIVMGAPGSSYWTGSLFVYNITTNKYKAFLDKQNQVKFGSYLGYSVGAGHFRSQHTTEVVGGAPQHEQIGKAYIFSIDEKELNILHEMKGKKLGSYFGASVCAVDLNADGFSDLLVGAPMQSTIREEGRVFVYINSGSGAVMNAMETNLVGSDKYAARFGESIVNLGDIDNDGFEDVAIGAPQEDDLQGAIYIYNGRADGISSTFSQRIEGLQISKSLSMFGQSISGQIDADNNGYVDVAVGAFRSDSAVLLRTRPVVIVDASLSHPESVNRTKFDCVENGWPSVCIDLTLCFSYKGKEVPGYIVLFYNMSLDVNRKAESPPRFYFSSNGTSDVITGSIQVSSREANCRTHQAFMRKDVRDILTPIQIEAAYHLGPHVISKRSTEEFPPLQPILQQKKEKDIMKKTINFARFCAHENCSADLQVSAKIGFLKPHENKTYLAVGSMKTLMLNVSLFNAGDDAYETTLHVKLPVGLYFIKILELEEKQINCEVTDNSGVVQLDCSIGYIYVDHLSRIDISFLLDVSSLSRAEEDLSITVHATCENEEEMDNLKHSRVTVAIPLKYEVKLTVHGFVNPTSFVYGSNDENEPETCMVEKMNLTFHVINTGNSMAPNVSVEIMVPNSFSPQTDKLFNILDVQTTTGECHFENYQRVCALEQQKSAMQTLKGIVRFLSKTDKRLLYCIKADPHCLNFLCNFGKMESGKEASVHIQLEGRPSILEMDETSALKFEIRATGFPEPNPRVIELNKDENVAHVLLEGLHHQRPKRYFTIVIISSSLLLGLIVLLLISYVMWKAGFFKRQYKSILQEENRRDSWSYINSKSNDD
T2 sequence (P05556 21-798): as the sequence (P05556 21-798) above
Procedure: (§1) Cell adhesion assay was carried out as previously described[47] with minor modifications. The day before the experiment, each well was coated with VCAM-1 (3 mg/mL) immobilized on the 96-well plate in PBS by overnight incubation at 4 °C. Thereafter, nonspecific binding was blocked by incubating the wells with 1% (w/v) bovine serum albumin (BSA) in Hank’s Balanced Salt Solution (HBSS) containing 5 mM MgCl2 at room temperature for 1 h before use. The cells were labeled by incubation with 12.5 μM 5-chloromethylfluorescein diacetate (CMFDA) in HBSS without 1% BSA at 37 °C for 30 min. The labeled cells were then centrifuged at 1000 rpm and washed twice with HBSS containing 1% BSA to remove excess CMFDA. Labeled cells (about 1 × 10^5 cells/well) were plated on each well in the presence or absence of visabrons and incubated at 37 °C for 60 min. Unbound cells were removed by washing the wells three times with 1% (w/v) BSA in HBSS, and bound cells were lysed by the addition of 0.5% Triton X-100 (diluted in DDW). The fluorescence in each well was quantified with a SPECTRAFluor Plus plate reader (Tecan), at λex = 485 nm and λem = 530 nm. To determine the number of adhered cells from the fluorescence values, a standard curve was generated by serial dilution of known numbers of CMFDA-labeled cells. […]
(§2) Table S6. TMLD- linear peptides inhibition of adhesion of integrin expressing cells to the respective immobilized ligands a a The cells were incubated for 30 min at 37 °C with the cells (1 x 105) in the 96 -well plate, previously covered with extracellular matrix ligand, in 100 µL of HBSS containing calcium and magnesium. After being washed with the same buffer, the adhered cells were lysed by Triton X-100, and the plate was read using Tecan spectrofluorimeter. The inhibitory dose 50% (IC 50) values represent ing mean ± standard deviatio ns (n=6) were calculated from dose response curves. bJurkat cells,VCAM -1; c α9-SW480 overexpressing cells, VCAM-1; d α1-K562 overexpressing cells, collagen IV ;e α2-K562 overexpressing cells, collagen I; f K562 wild type

α2β1-collagen I = biological target: T3, α2β1-collagen I (Homo sapiens, UniProt P05556+P17301); experiment: Adhesion of α2-K562 overexpressor cells to immobilized collagen I; type: cell-based; details: α2-K562 overexpressing cells, collagen I; n=6; Table S6; read-out: IC50 α2β1 (linear peptides)
T3 construct: expressed in transfected cells; host or cells: K562 transfected with α2 integrin (gift of Dr. M. Hemler)
T3 sequence (P17301 30-1181): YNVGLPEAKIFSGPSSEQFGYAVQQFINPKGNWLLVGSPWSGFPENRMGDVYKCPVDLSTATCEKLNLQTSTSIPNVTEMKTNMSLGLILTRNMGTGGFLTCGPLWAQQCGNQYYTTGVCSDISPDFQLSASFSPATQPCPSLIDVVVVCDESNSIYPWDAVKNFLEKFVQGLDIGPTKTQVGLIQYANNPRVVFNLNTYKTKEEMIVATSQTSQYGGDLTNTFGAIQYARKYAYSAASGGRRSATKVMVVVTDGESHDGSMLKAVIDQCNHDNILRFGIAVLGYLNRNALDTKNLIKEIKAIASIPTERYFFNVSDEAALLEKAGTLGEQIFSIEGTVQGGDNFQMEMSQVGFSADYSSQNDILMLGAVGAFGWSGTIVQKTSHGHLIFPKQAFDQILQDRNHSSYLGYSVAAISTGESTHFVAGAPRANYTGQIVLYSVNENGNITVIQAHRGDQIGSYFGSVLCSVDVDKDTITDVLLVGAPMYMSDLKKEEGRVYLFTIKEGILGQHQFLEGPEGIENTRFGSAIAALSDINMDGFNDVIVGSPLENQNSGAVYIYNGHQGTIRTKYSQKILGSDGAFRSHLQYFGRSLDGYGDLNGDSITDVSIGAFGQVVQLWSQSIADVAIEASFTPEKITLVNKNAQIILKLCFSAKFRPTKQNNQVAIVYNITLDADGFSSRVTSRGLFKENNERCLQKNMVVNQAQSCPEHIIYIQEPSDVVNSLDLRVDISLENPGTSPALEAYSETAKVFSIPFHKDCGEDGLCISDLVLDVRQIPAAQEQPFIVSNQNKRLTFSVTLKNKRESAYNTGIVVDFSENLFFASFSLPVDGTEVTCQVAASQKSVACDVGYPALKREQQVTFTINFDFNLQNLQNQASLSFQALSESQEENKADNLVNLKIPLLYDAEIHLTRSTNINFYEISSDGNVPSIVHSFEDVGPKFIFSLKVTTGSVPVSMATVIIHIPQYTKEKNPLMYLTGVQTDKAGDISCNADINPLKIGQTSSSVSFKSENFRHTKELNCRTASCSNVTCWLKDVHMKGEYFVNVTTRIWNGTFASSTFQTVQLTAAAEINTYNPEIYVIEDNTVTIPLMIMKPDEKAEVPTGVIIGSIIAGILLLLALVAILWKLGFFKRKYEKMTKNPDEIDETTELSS
T3 sequence (P05556 21-798): as the sequence (P05556 21-798) above
Procedure: as §1, §2

[2] = type: in vitro ADME, male Wistar rats; details: incubation in rat plasma, 37 °C
Procedure: Figure S7- Metabolic stability of linear (blue) and cyclic Visabrons in rat plasma (n=3) […]
(orange, green, red). The […]
amount of peptides is presented as a percentage of the sample at time 0.
Figure S8- A. Calibration curve of Visabron c(4-4) (prepared by spiking the standard working stock solution with 15 μl of the different concentration, 20 μl metoprolol (10 μg/mL) and 135 -μl blank rat plasma. B. Profile of plasma concentration of Visabron c(4-4) vs time in rats following i.v. bolus administr ation of 0.515 mg/kg; C. semi - logarithmic plot of plasma concentration of Visabron c(4-4) vs time (n = 4 , mean ± SD). […]
For peptide sequencing, the protein digest mixture was subjected to electrospray ionization MS/MS analysis using a QTrap mass spectrometer, equipped with a nanospray source. […] Quantitation of free cysteine residues and disulfide bonds was done as previously described4. […]

α5β1-fibronectin = biological target: T4, α5β1-fibronectin (Homo sapiens, UniProt P05556+P08648); experiment: Adhesion of wild-type K562 cells to immobilized fibronectin; type: cell-based; details: K562 wild type cells, fibronectin; n=6; Table S6; read-out: IC50 α5β1 (linear peptides)
T4 construct: host or cells: K562 wild type
T4 sequence (P08648 42-894 limits assumed): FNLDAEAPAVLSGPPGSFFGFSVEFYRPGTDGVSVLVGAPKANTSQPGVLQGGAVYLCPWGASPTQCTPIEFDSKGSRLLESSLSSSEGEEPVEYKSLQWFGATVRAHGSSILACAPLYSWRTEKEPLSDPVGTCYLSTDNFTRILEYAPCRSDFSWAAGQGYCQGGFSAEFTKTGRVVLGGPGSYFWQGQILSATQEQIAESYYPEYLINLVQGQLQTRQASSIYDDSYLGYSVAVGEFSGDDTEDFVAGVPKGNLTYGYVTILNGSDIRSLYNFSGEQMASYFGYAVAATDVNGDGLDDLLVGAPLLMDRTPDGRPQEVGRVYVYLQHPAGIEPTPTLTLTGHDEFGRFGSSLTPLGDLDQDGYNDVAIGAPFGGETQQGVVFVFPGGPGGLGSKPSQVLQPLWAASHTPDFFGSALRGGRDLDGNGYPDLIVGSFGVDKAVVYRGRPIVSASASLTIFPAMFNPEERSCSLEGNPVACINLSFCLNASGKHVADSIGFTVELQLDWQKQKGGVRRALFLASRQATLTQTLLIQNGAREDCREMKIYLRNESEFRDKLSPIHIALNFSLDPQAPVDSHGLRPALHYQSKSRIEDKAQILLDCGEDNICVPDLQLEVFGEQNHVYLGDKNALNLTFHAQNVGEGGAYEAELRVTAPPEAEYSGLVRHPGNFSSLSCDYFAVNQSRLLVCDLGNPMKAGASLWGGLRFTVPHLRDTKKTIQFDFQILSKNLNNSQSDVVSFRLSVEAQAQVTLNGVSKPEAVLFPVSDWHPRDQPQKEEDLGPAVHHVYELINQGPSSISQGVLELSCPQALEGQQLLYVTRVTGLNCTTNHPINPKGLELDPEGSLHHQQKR
T4 sequence (P08648 895-1049 limits assumed): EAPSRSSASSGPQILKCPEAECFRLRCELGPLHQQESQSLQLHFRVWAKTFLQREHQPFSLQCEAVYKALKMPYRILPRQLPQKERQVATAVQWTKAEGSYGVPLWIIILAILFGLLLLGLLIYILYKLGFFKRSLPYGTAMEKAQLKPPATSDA
T4 sequence (P05556 21-798): as the sequence (P05556 21-798) above
Procedure: as §1, §2

α1β1-collagen IV = biological target: T5, α1β1-collagen IV (Homo sapiens, UniProt P05556+P56199); experiment: Adhesion of α1-K562 overexpressor cells to immobilized collagen IV; type: cell-based; details: α1-K562 overexpressing cells, collagen IV; n=6; Table S6; read-out: IC50 α1β1 (linear peptides)
T5 construct: expressed in transfected cells; host or cells: K562 transfected with α1 integrin (gift of Dr. M. Hemler)
Procedure: as §1, §2

Question: Which IC50 (α9β1) does the source give for CSCC[C@H](NC(=O)[C@@H](NC(=O)CNC(=O)[C@@H](N)CCCCN)[C@@H](C)O)C(=O)N[C@@H](CC(C)C)C(=O)N[C@@H](CC(=O)O)C(=O)NCC(=O)N[C@@H](CC(C)C)C(N)=O [sequence 6, KG39TMLDG44L] (H-KGTMLDGL-NH2; N-terminus and C-terminus assumed) here?
Answer: 1450 ± 125 µM

Question: And the IC50 [1]?
Answer: 1550 ± 125 µM

Question: And the IC50 (α2β1-collagen I)?
Answer: > 10000 µM

Question: And the half-life [2]?
Answer: 7 min

Question: What about the IC50 (α5β1-fibronectin) of the same compound?
Answer: > 10000 µM

Question: And the IC50 (α1β1-collagen IV)?
Answer: > 10000 µM
